# In US11667666B2, “Methods and compositions for treatment of cancer” (CFD Research Corporation, priority 2020, dated 2023):
# Tested on: PANC-1 cells
# Test: Cell Titer-Glo luminescent cell viability assay, in vitro compound screening against pancreatic cancer cell lines
# Assay type: cell-based
# Conditions: 24 and 48-hour post dosing; 10 nM, 100 nM, 1 μM, 10 μM, and 100 μM; n=4
# Description: In vitro compound screening against pancreatic cancer cell lines for IC50 determination. […] ASPC-1, BXPC-3, MIA-PaCa-2, and PANC-1 cell lines were obtained from ATCC. […] It should be noted that PANC-1, MIA-PaCa-2 and BxPC-3 cell-lines are gemcitabine-resistant cell-lines.
# The IC50 was calculated using the following Log (inhibitor) versus Response equation: Y=Bottom+(Top−Bottom)/(1+10^((X-Log IC50))). Representative data and calculated IC50 values using the assay for representative compounds are shown FIGS. 4-7.
row,Compound,inhibition of cell-proliferation
1,bentiromide [Compound 5],did not show any appreciable inhibition of cell-proliferation
2,"CC1(C)O[C@@H]2C[C@H]3[C@@H]4CCC5=CC(=O)C=C[C@]5(C)[C@H]4[C@@H](O)C[C@]3(C)[C@]2(C(=O)CO)O1 [Compound 7, desonide]",did not show any appreciable inhibition of cell-proliferation
3,glimepiride [Compound 8],did not show any appreciable inhibition of cell-proliferation
